The values that follow come from US6949585B2, “Cyclooctanone derivatives and cyclodecanone derivative, and use thereof” (Eisai Co., Ltd., priority 2001, dated 2005).

One may read the IC50 as the concentration needed to halve the response being measured. Low readings indicate inhibition by little substance, high ones a need for much substance.

Common to all, as to type: cell-based
One assay has as its system IL-2 production. Description: IL-2 production by PHA-stimulated human peripheral lymphocytes (ELISA). The note with it: PHA 10 μl/ml, 48 h, compound 0.1-100 μM. The method, then:
Human peripheral lymphocytes were stimulated with mitogen (PHA) to induce IL-2 production. The amount of IL-2 produced was measured to evaluate the inhibitory effect of the present compound. Briefly, human peripheral blood monocyte fraction was isolated in a manner similar to Test Example 1.
The monocytes were suspended in RPM 1640 medium (Gibco BRL) containing 10% FCS and seeded in a petri dish and left at 37° C. for an hour. Then, the cells (lymphocytes) which were not attached to the wall of the petri desh were isolated by centrifugation. The lymphocytes collected were suspended in the medium and seeded at 5×10^5 cell/160 μl in a 96-well plate.
The present compound was added to the lymphocytes cultured and the mixture was left at 37° C. for thirty minutes. Then, the cells were stimulated by adding PHA (Difco) at a final concentration of 10 μl/ml and left at 37° C. for forty eight hours. For control, the cells were used wherein PHA was added to the cell at a final concentration of 10 μl/ml without the present compound.
The amount of IL-2 which was released in the culture supernatant was measured using an ELISA kit (BioSource International). The inhibitory rate (%) of IL-2 production as compared to control was calculated using the following formula from IL-2 amounts thus measured: [formula]
In addition, the concentration of the present compound to inhibit 50% (IC50) was calculated by plotting the inhibitory rate (%) of IL-2 production obtained by varying a final concentration of the present compound of from 0.1 μM to 100 μM.

The subject of a further assay is TNF-α production. The assay is described as follows: TNF-α production by LPS-stimulated human peripheral blood monocytes (ELISA). The conditions noted are these: LPS 10 ng/ml, 18 h, compound 0.1-100 μM. The protocol:
(§1) TNF-α and IL-6 production inhibitory activity of the compound of the present invention was evaluated by determining the amounts of TNF-α and IL-6 produced by the human peripheral blood monocyte stimulated with lipopolysaccharide(LPS). Briefly, human peripheral blood monocyte fraction was isolated from the peripheral venous blood from healthy male volunteers by density gradient centrifugation with Ficoll-Paque (Pharmacia). The monocytes were suspended in RPMI 1640 medium (Gibco BRL) containing 10% FCS and seeded at 5×10^5 cell/160 μl in a 96-well plate.
(§2) The present compound was added to the monocytes cultured and the mixture was left at 37° C. for thirty minutes. Then the monocytes were stimulated by adding LPS (Sigma) at a final concentration of 10 ng/ml and left 37° C. for eighteen hours. For control, the cells were used wherein LPS was added to the cell at a final concentration of 10 ng/ml without the present compound.
(§3) The amount of each of TNF-α and IL-6, which were released in the culture supernatant, was measured using an ELISA kit (R & D). The inhibitory rate (%) of TNF-α and IL-6 production as compared to control was calculated using the following formula from the amounts of TNF-α and […] thus measured: [formula]
(§4) In addition, the concentration of the present compound to inhibit 50% (IC50) was calculated by plotting the inhibitory rate (%) of IL-6 and TNF-α production obtained by varying a final concentration of the present compound of from 0.1 μM to 100 μM.

The next assay has as its system IL-6 production. The assay is described as follows: IL-6 production by LPS-stimulated human peripheral blood monocytes (ELISA). The note with it: Monocyte, LPS 10 ng/ml, 18 h, compound 0.1-100 μM. The method, then: as §1, §2, §3, §4

With `O=C1C=CCC(CCc2ccccc2)C[C@@H](O)[C@H]1O` (mixture of isomers) [Example 84 (b), (7RS,8RS)-7,8-dihydroxy-5-phenethyl-2-cycloocten-1-one], the figures for the IC50 with IL-2 production (Lymphocyte) and in the assay on TNF-α production (Monocyte) were 3.6 µM and 8.8 µM, respectively.

Turning to `COc1ccc(C(=O)OC2CC/C=C\C(=O)[C@H](O)[C@H](O)CC2)c(O)c1` (mixture of isomers) [Example 93, Z-(7RS,8RS)-7,8-dihydroxy-6-oxo-4-cyclodecenyl (2-hydroxy-4-methoxy)benzoate], the concentration for half-maximal inhibition (IC50) in the assay with IL-2 production was found to be 2 µM; in the assay with TNF-α production, 1.8 µM.

Regarding `O=C1/C=C\CCC(Cc2ccccc2)CC[C@@H](O)[C@H]1O` (mixture of isomers) [Example 87, Z-(9RS,10RS)-6-benzyl-9,10-dihydroxy-2-cyclodecen-1-one], the IC50 with IL-2 production (Lymphocyte) turned out to be 3 µM; in the assay on TNF-α production (Monocyte) it was 12.4 µM.

For the molecule `O=C1C=CCC(CCc2cccc(O)c2)CCC1` (centres unmarked) [Example 18, 5-[2-(3-Hydroxyphenyl)ethyl]-2-cycloocten-1-one], the figures for the IC50 in the assay on IL-2 production (Lymphocyte), in the assay with IL-6 production and in the assay on TNF-α production (Monocyte) were 2.1 µM, 6.8 µM and 5.9 µM, respectively.

As for `O=C1C=CCC(Cc2ccccc2)CCC1` (centres unmarked) [Example 4, 5-Benzyl-2-cycloocten-1-one], the IC50 came out at 23.3 µM with IL-6 production and 13.6 µM in the assay with TNF-α production (Monocyte).

In the assay with TNF-α production (Monocyte), `O=C(OC1CC=CC(=O)[C@H](O)[C@H](O)C1)c1ccccc1O` (mixture of isomers) [Example 90 (a), (6RS,7RS)-6,7-dihydroxy-5-oxo-3-cyclooctenyl 2-hydroxybenzoate] had a concentration for half-maximal inhibition (IC50) of 3.4 µM. In other words, the single-digit micromolar range.

In the case of `O=C1C=CCC(CCc2ccccc2O)C[C@@H](O)[C@H]1O` (mixture of isomers) [Example 85 (a), (7RS,8RS)-7,8-dihydroxy-5-[2-(2-hydroxyphenyl)ethyl]-2-cycloocten-1-one], the figures for the IC50 in the assay with IL-2 production (Lymphocyte) and in the assay with TNF-α production (Monocyte) were 64.9 µM and 2.2 µM, respectively.

Take `O=C1/C=C\CCC(Cc2ccccc2)CCCC1` (centres unmarked) [Example 22 (a), Z-6-benzyl-2-cyclodecen-1-one]: the IC50 in the assay with IL-2 production (Lymphocyte) came out at 2.6 µM; in the assay on TNF-α production (Monocyte) it was 28.1 µM.

In the case of `O=C(OC1CC/C=C\C(=O)[C@H](O)[C@H](O)CC1)c1ccccc1O` (mixture of isomers) [Example 92, Z-(7RS,8RS)-7,8-dihydroxy-6-oxo-4-cyclodecenyl (2-hydroxy)benzoate], the values for the half-inhibitory concentration (IC50) in the assay with IL-2 production (Lymphocyte) and in the assay with TNF-α production (Monocyte) were 1.2 µM and 1.7 µM, respectively.

In the case of `O=C1C=CCC(CCc2ccccc2)CCC1` (centres unmarked) [Example 5, 5-Phenethyl-2-cycloocten-1-one], the IC50 was 1.7 µM in the assay with IL-2 production (Lymphocyte), 21.6 µM in the assay on IL-6 production and 13.7 µM with TNF-α production (Monocyte).

On to `COc1ccc(C(=O)OC2CC=CC(=O)CCC2)c(O)c1` (centres unmarked) [Example 47, 5-Oxo-3-cyclooctenyl (2-hydroxy-4-methoxy)benzoate], for which the figures for the IC50 with IL-2 production and with TNF-α production were 0.14 µM and 0.5 µM, respectively.
